Starred links: 1 amine or outer side, 2 acyl side, 3 side chain; linkers in the order of their positions; H or OH if unused. Positions of bridges follow the written chain, without caps; N, C: chain ends. Non-standard residues stand in square brackets, D forms with d. Residues, ends and D or L forms follow the SMILES beside them. Trp(7-aza) = N[C@@H](Cc1c[nH]c2ncccc12)C(=O)O; mXylylene = c1cc(C[*:1])cc(C[*:2])c1; Phg = N[C@H](C(=O)O)c1ccccc1; NMeS = CN[C@@H](CO)C(=O)O; Nva = CCC[C@H](N)C(=O)O
Legend:
[1] = test system: C5a; experiment: C5a EIA on supernatant from human RBC hemolysis assay; assay type: biochemical; conditions: hemolysis assay supernatant diluted 1:50; read-out: IC50, inhibition of formation of C5a
Protocol: Levels of C5a correlate with complement activity and are therefore an indicator of the ability of the compounds tested to inhibit complement activity. Supernatant from the hemolysis assay was diluted 1:50 and assayed for C5a levels. […] As used herein, the term “IC50” refers to the half maximal inhibitory concentration, a value used to indicate the amount of the inhibitor needed to reduce a given reaction or process by half.
Inhibition of the production of C5a and the membrane attack complex (MAC) were measured by MicroVue EIA kits (Quidel Corporation, San Diego, Calif.).

[2] = test system: membrane attack complex (MAC); experiment: Membrane attack complex (MAC) EIA on supernatant from human RBC hemolysis assay; assay type: biochemical; conditions: hemolysis assay supernatant diluted 1:5; read-out: IC50, inhibition of formation of the MAC
Protocol: Supernatant from the hemolysis assay was diluted 1:5 and assayed for MAC levels.
C5 inhibitory activity was assessed by enzyme immunoassay (EIA). Inhibition of the production of C5a and the membrane attack complex (MAC) were measured by MicroVue EIA kits (Quidel Corporation, San Diego, Calif.).

[3] = biological target: T1, C5 (Homo sapiens, UniProt P01031); experiment: Human hemolysis assay (RBC lysis assay using complete human sera); assay type: cell-based; design: with complete human sera (Complement Technology, Tyler Tex.) and polypeptides; tissue Complement Technology, Tyler Tex; host or cells: complete human serum; conditions: inhibition of lysis of antibody-sensitized sheep erythrocytes, complete human sera
T1 sequence (P01031 19-1676): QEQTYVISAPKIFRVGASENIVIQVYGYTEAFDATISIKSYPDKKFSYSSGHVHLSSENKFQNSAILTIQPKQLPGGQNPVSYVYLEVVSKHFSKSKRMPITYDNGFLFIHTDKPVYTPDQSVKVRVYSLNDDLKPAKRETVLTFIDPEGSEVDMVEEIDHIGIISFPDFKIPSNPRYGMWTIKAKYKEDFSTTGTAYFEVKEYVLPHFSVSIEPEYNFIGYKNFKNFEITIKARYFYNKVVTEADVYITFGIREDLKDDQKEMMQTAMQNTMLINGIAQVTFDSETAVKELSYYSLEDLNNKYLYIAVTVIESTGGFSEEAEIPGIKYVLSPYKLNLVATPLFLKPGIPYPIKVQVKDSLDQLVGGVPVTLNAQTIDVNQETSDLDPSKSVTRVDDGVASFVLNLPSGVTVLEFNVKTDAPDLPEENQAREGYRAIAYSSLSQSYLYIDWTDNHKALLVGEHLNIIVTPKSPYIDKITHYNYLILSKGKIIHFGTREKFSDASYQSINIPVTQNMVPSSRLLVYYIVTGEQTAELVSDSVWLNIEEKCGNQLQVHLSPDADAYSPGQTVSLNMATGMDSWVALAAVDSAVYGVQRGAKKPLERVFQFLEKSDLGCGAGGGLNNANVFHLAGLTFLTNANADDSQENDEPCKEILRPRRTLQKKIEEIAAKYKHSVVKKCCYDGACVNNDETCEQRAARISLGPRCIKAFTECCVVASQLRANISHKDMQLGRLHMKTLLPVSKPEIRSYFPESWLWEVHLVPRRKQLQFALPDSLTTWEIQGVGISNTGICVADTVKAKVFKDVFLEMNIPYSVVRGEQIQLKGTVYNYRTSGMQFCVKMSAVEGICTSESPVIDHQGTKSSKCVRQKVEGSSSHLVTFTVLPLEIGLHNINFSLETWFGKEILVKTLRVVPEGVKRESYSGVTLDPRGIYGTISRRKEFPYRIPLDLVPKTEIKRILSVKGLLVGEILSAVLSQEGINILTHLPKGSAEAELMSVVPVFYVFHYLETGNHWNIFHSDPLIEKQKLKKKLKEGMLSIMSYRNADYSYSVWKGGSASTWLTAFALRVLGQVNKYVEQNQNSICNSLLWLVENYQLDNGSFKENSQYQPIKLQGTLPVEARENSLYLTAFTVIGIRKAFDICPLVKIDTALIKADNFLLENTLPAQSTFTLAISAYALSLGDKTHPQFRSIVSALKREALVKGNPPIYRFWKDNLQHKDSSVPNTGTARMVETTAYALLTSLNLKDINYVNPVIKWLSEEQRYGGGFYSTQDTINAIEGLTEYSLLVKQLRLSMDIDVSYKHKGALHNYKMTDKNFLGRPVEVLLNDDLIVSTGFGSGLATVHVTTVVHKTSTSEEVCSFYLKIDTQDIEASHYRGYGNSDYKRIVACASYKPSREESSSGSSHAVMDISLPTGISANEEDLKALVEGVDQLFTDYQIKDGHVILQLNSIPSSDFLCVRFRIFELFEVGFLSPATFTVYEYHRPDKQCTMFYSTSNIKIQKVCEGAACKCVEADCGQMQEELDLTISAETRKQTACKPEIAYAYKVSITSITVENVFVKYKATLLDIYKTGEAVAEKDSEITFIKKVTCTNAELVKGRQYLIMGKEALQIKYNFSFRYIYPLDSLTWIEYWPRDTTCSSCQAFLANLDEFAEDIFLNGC

[4] = biological target: T1, C5; experiment: Fluorescence polarization saturation binding of probe R3076 to C5; design: purchased Complement Technology, Tyler, Tex; conditions: read-out: equilibrium dissociation constant (KD)
Protocol: FP was used for screening competitive polypeptide inhibitors of the C5 protein. […] The BODIPY-TMR dye attached to the C-terminal lysine of the protein and the subsequent labeled probe was purified by HPLC.
Polarization was measured over time, until binding reached equilibrium. KD was determined using Graphpad Prism (using “Saturating Binding Curves, One Site—Specific Binding With Hill Slope” as the curve fit to determine KD). […] Based on this information, 25 nM and 50 nM concentrations for R3076 (SEQ ID NO: 40) and C5 protein, respectively, were chosen for use in the competition assay. These concentrations represented the approximate level of protein necessary for 95% probe binding to C5 protein.

[5] = test system: primate C5 protein; experiment: Ex vivo hemolysis assay on plasma samples from the cynomolgus PK study; assay type: in vivo, cynomolgus monkey
Description: Also shown are changes in hemolytic activity (squares) at the same time points.

[6] = test system: primate C5 protein; experiment: Hemolysis assay with exogenous compound added to normal cynomolgus plasma; assay type: cell-based, cynomolgus monkey
[7] = biological target: T2, rat C5 (Rattus norvegicus, UniProt P08650); experiment: Ex vivo hemolysis assays in the rat study
T2 construct: from tissue; host or cells: plasma of dosed male rats
T2 sequence (P08650 19-1681): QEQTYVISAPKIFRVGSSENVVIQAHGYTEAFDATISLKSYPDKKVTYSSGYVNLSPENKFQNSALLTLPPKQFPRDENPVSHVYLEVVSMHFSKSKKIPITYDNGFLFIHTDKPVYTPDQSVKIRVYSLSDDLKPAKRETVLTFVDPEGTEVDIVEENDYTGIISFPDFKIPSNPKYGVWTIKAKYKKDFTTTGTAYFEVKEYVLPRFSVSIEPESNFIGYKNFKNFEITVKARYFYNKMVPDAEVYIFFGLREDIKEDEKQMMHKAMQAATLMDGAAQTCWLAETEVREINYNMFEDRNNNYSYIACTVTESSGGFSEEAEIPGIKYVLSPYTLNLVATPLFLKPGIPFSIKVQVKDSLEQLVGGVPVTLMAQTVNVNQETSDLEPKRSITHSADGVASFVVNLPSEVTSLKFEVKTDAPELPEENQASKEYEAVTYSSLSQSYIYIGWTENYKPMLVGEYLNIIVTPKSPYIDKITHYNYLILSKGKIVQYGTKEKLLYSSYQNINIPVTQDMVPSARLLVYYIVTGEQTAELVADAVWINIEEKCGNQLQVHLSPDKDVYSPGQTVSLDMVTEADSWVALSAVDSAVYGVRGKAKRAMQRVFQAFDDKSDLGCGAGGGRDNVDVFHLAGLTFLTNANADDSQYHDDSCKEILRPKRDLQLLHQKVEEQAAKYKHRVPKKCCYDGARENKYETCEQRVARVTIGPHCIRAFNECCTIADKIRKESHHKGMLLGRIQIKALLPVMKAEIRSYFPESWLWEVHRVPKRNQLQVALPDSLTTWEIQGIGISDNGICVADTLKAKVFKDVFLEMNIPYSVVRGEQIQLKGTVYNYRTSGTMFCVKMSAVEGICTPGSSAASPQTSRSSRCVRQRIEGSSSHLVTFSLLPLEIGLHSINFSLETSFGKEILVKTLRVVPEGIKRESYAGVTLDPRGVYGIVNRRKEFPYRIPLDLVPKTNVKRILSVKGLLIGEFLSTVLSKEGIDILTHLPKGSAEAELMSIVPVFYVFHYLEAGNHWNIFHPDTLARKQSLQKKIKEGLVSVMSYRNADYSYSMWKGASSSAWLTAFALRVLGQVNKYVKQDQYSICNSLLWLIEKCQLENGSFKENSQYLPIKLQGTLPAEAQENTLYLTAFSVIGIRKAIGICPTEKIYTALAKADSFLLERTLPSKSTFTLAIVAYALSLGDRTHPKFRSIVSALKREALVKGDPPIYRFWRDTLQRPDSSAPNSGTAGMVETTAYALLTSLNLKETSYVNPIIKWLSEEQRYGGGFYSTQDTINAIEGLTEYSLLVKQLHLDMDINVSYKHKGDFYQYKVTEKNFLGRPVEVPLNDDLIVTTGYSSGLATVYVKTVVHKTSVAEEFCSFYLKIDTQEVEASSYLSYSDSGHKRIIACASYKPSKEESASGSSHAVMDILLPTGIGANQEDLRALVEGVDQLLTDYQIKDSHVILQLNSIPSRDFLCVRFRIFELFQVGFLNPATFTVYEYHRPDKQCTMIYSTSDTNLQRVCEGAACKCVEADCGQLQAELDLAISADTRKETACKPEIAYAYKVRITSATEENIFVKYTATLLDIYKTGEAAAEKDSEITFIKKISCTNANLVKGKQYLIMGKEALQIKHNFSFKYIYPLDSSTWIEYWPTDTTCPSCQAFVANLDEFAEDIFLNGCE

[8] = cynomolgus monkey, single 3 mg/kg IV
[9] = in vivo; conditions: male, cynomolgus monkey, iv, 3 mg/kg
[10] = Pharmacokinetic studies in rat (IV and SC); conditions: male rats, SC 30 mg/kg, combined plasma concentrations of R3152 and R3201
Protocol: Left: Male Sprague-Dawley rats (n=3) were injected intravenously at a single 2 mg/kg dose. Blood samples were collected at indicated time points, processed into plasma, and analyzed for the indicated compound by LC-MS. […] […] Blood samples were collected at indicated time points, processed into plasma, and analyzed for the indicated compound by LC-MS.
Blood samples were collected at indicated time points, processed into plasma, and analyzed for the indicated compound by LC-MS. […] Blood samples were collected at indicated time points, processed into plasma, and analyzed for the indicated compound by LC-MS.

[11] = biological target: T1, C5; experiment: Alternative human hemolysis assay using C5 depleted sera and purified human C5; assay type: cell-based; design: purchased Complement Technology, Tyler, Tex; conditions: antibody-sensitized sheep erythrocytes, 1.5% human C5 depleted sera and 0.5 nM purified human C5

## CCC[C@H](NC(=O)[C@@H]1CCCN1C(=O)[C@H](CCC)NC(=O)[C@@H]1CSCc2cccc(c2)CSC[C@H](NC(=O)[C@H](CCC)NC(C)=O)C(=O)N[C@@H](c2ccccc2)C(=O)N[C@@H]([C@@H](C)O)C(=O)N[C@@H](Cc2c[nH]c3ncccc23)C(=O)N[C@@H](CCC(=O)O)C(=O)N[C@@H](Cc2ccc(O)cc2)C(=O)N(C)[C@@H](CO)C(=O)N[C@@H](Cc2c[nH]cn2)C(=O)N1)C(N)=O [Compound R3008, [mXylyl(2,10)]Ac-Nvl-C-Phg-T-azaTrp-E-Y-(N-Me)S-H-C-Nvl-P-Nvl-NH2] (Ac-[Nva]C[Phg]T[Trp(7-aza)]EY[NMeS]HC[Nva]P[Nva]-NH2; linker 2-10 via mXylylene)
[1]
  IC50: 54.5 nM
[2]
  IC50: 33 nM
[3]
  IC50: 97 nM

## CCC[C@H](NC(C)=O)C(=O)N[C@@H](CCC)C(=O)N[C@@H](Cc1ccc(O)cc1)C(=O)N[C@@H](CCC(=O)O)C(=O)N[C@@H](CC(N)=O)C(=O)N[C@H](C(=O)N[C@@H](Cc1ccc(O)cc1)C(=O)N[C@@H](Cc1c[nH]c2ncccc12)C(=O)N[C@@H](CCC(=O)O)C(=O)N[C@@H](Cc1ccc(O)cc1)C(=O)N1CCC[C@H]1C(=O)N[C@H](C(=O)N[C@@H](CCC)C(=O)N[C@@H](CCCCNC(=O)CCCCCNC(=O)CCC1=C(C)C2=Cc3ccc(-c4ccc(OC)cc4)n3[B-](F)(F)[N+]2=C1C)C(N)=O)C1CCCCC1)C(C)(C)C [Compound R3076, Ac-Nvl-Nvl-Y-E-N-Tbg-Y-azaTrp-E-Y-P-Chg-Nvl-K-(BODIPY-TMR-X) NH2]
[4]
  Kd: 8.07 nM
[3]
  IC50: 297 nM

## CCC[C@H](NC(=O)[C@@H](NC(=O)[C@@H]1CCCN1C(=O)[C@H](Cc1ccc(O)cc1)NC(=O)[C@H](CCC(=O)O)NC(=O)[C@H](Cc1c[nH]c2ncccc12)NC(=O)[C@H](Cc1ccc(O)cc1)NC(=O)[C@@H](NC(=O)[C@H](CC(=O)O)NC(=O)[C@@H]1CSCc2cccc(c2)CSC[C@H](NC(C)=O)C(=O)N[C@@H](C(C)C)C(=O)N[C@@H](CCC(=O)O)C(=O)N[C@@H](CCCNC(=N)N)C(=O)N[C@@H](Cc2ccccc2)C(=O)N1)C(C)(C)C)C1CCCCC1)C(N)=O [Compound R3152, [mXylyl(1,6)]Ac-C-V-E-R-F-C-D-Tbg-Y-azaTrp-E-Y-P-Chg-Nvl-NH2]
[5]; cynomolgus monkey, in vivo
  binding to primate C5 protein (in words): binds with high affinity
[5]; cynomolgus monkey, single 3 mg/kg IV
  time after dosing at which hemolytic activity returned to normal levels: 48 h
[5]; cynomolgus plasma diluted 1:100, activated sheep red blood cells
  plasma concentration with clear inhibition of complement-mediated hemolysis: > 200 ng/mL
[6]
  IC50: 2 to 20 ng/mL
[7]
  inhibitory activity in ex vivo hemolysis assays (in words): very little inhibitory activity
[7]; in vivo
  binding to rat C5 (in words): do not bind
[8]
  initial distribution phase: < 1 h
  time for which plasma drug levels were detectable: up to 48 hours
[9]
  AUC(0-inf): 23300 ± 2120 ng·h/mL
  Vd: 1.49 ± 0.152 L/kg
  clearance: 2.15 mL/min/kg
  half-life: 10.9 ± 0.8 h
  level at 48 h: < 100 ng/mL
[10]
  bioavailability of dose, based on AUC: approximately 65%

## CCCCCCCCCCCCCCCC(=O)NCCCC[C@H](NC(=O)[C@@H](NC(=O)[C@@H]1CCCN1C(=O)[C@H](Cc1ccc(O)cc1)NC(=O)[C@H](CCC(=O)O)NC(=O)[C@H](Cc1c[nH]c2ncccc12)NC(=O)[C@H](Cc1ccc(O)cc1)NC(=O)[C@@H](NC(=O)[C@H](CC(=O)O)N(C)C(=O)[C@@H]1CSSCCC(=O)N[C@@H](C(C)C)C(=O)N[C@@H](CCC(=O)O)C(=O)N[C@@H](CCCNC(=N)N)C(=O)N[C@@H](Cc2ccccc2)C(=O)N1)C(C)(C)C)C1CCCCC1)C(=O)O [Compound R3198, [cyclo(1,6)](desamino)C-V-E-R-F-C-(N-Me)D-Tbg-Y-azaTrp-E-Y-P-Chg-(Lys-C16)]
[11]
  IC50: 142 nM

— patent US10208089B2, “Modulation of complement activity” (priority 2014, dated 2019)
